One test addresses T1, PCSK9Δhelix (Homo sapiens, UniProt Q8NBP7).
T1 construct: Human PCSK9 construct M1-Q692 with an engineered TEV site (residue deletion Y166, R167); made in house; host or cells: CHO
Description: PCSK9Δhelix/Ab20 TR-FRET binding assay. The settings on record: TR-FRET; Table 8E, additional compounds; read-out: PCSK9Δhelix/Ab20 IC50. (In TR-FRET formats the signal depends on donor and acceptor labels being close together.)

The next test concerns the target PCSK9 (Homo sapiens, UniProt Q8NBP7). Description: PCSK9/EGF(A) TR-FRET binding assay. The settings on record: TR-FRET; Table 8E, additional compounds; read-out: PCSK9/EGF(A) IC50.

Molecules are shown by their SMILES. Numbered stars: 1 amine (or outer) side, 2 acyl side, 3 side chain; on linkers, the order of the positions; unused ones are H or OH. Square brackets hold non-standard residues; d marks the D form. Peptide text beside a SMILES is read from it. * marks the point of attachment. Propanoyl(3-(3-pyridyl)) = O=C(CCc1cccnc1)*; Desaminohistidyl = O=C(CCc1c[nH]cn1)*; X44 = Cn1cc([C@H]2C[C@H]2C(=O)*)cn1; X14 = O=C(CC1CCN([*:1])CC1)[*:2]; X34 = NC(=O)N1CCN(CCC(=O)*)CC1; X8 = O=C(c1ccc(N2CCOCC2)nc1)*; X19 = Cc1cc(C)n(CCC(=O)*)n1; X32 = O=C(CCN1CCOCC1)*; Ms = CS(=O)(=O)*

The values below come from patent US11034725B2, “Compositions and methods for treating cardiovascular disease” (Genentech, Inc., priority 2016, dated 2021).

T1 sequence (Q8NBP7 with tags, fused parts or gaps limits assumed): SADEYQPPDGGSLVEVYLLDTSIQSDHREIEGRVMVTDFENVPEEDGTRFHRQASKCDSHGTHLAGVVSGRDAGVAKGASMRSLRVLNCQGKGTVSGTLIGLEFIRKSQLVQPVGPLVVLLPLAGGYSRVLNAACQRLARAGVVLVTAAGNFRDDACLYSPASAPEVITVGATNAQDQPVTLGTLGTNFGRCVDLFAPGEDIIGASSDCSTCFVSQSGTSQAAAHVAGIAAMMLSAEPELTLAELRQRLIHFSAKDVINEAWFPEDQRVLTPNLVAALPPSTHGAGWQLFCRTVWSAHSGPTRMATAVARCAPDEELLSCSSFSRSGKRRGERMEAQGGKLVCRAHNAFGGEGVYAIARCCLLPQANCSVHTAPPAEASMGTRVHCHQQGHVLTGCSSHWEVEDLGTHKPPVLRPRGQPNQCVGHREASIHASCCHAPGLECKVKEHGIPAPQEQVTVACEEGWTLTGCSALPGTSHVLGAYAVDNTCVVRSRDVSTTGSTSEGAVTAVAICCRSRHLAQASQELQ
T1 sequence (Q8NBP7 31-152 partner limits assumed): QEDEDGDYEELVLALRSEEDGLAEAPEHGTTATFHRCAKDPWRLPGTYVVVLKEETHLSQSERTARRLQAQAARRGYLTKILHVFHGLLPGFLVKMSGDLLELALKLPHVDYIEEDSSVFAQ
PCSK9, sequence (Q8NBP7 153-692): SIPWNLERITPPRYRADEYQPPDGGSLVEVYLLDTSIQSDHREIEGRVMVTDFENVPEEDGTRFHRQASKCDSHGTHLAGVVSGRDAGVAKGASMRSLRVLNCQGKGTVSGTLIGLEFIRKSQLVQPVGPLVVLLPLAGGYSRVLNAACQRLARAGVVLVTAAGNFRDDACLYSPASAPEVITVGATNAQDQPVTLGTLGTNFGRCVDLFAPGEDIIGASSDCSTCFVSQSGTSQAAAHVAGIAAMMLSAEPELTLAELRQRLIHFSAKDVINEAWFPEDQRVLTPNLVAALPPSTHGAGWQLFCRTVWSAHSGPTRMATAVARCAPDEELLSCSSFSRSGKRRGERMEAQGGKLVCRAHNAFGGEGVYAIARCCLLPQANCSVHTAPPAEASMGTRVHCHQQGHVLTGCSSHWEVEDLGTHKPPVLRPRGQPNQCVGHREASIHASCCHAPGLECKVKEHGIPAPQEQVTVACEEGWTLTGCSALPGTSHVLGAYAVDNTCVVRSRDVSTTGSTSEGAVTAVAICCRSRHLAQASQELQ
PCSK9, sequence (Q8NBP7 31-152 partner limits assumed): as the sequence (Q8NBP7 31-152 partner limits assumed) above

`CC[C@H](C)[C@H](NC(=O)[C@H](CCCNC(=N)N)NC(=O)[C@@H](NC(=O)[C@H](CC(C)C)NC(=O)[C@H](CC(N)=O)NC(=O)[C@H](Cc1c[nH]c2ccccc12)NC(=O)CCN1CCN(C(N)=O)CC1)C(C)C)C(=O)NCC(=O)N[C@@H](CC(C)C)C(=O)N[C@@H](CC(C)C)C(=O)N[C@@H](CCCNC(=N)N)C(N)=O` [Compound 131] (X34-WNLVRIGLLR-NH2): the IC50 at PCSK9Δhelix is 6.7 µM; on PCSK9 it was at least 50 µM.

In the case of `CC[C@H](C)[C@H](NC(=O)[C@H](CCCNC(=N)N)NC(=O)[C@@H](NC(=O)[C@H](CC(C)C)NC(=O)[C@H](CC(N)=O)NC(=O)[C@H](Cc1c[nH]c2ccccc12)NC(=O)CCc1c[nH]cn1)C(C)C)C(=O)NCC(=O)N[C@@H](CC(C)C)C(=O)N[C@@H](CC(C)C)C(=O)N[C@@H](CCCNC(=N)N)C(N)=O` [Compound 132] (Desaminohistidyl-WNLVRIGLLR-NH2), the IC50 at PCSK9Δhelix was 9 µM; on PCSK9 it was at least 50 µM.

As to `CC[C@H](C)[C@H](NC(=O)[C@H](CCCNC(=N)N)NC(=O)[C@@H](NC(=O)[C@H](CC(C)C)NC(=O)[C@H](CC(N)=O)NC(=O)[C@H](Cc1c[nH]c2ccccc12)NC(=O)CC1CCN(S(C)(=O)=O)CC1)C(C)C)C(=O)NCC(=O)N[C@@H](CC(C)C)C(=O)N[C@@H](CC(C)C)C(=O)N[C@@H](CCCNC(=N)N)C(N)=O` [Compound 133] (Ms-[X14]WNLVRIGLLR-NH2), the IC50 at PCSK9Δhelix is 17 µM; at PCSK9, at least 50 µM.

Take `CC[C@H](C)[C@H](NC(=O)[C@H](CCCNC(=N)N)NC(=O)[C@@H](NC(=O)[C@H](CC(C)C)NC(=O)[C@H](CC(N)=O)NC(=O)[C@H](Cc1c[nH]c2ccccc12)NC(=O)c1ccc(N2CCOCC2)nc1)C(C)C)C(=O)NCC(=O)N[C@@H](CC(C)C)C(=O)N[C@@H](CC(C)C)C(=O)N[C@@H](CCCNC(=N)N)C(N)=O` [Compound 134] (X8-WNLVRIGLLR-NH2): the IC50 was 4.2 µM on PCSK9Δhelix and at least 50 µM at PCSK9.

As to `CC[C@H](C)[C@H](NC(=O)[C@H](CCCNC(=N)N)NC(=O)[C@@H](NC(=O)[C@H](CC(C)C)NC(=O)[C@H](CC(N)=O)NC(=O)[C@H](Cc1c[nH]c2ccccc12)NC(=O)[C@@H]1C[C@@H]1c1cnn(C)c1)C(C)C)C(=O)NCC(=O)N[C@@H](CC(C)C)C(=O)N[C@@H](CC(C)C)C(=O)N[C@@H](CCCNC(=N)N)C(N)=O` [Compound 135] (X44-WNLVRIGLLR-NH2), the IC50 on PCSK9Δhelix was 10 µM; on PCSK9 it was at least 50 µM.

As to `CC[C@H](C)[C@H](NC(=O)[C@H](CCCNC(=N)N)NC(=O)[C@@H](NC(=O)[C@H](CC(C)C)NC(=O)[C@H](CC(N)=O)NC(=O)[C@H](Cc1c[nH]c2ccccc12)NC(=O)CCn1nc(C)cc1C)C(C)C)C(=O)NCC(=O)N[C@@H](CC(C)C)C(=O)N[C@@H](CC(C)C)C(=O)N[C@@H](CCCNC(=N)N)C(N)=O` [Compound 136] (X19-WNLVRIGLLR-NH2), the figures for the IC50 on PCSK9Δhelix and on PCSK9 were 9 µM and at least 50 µM, respectively.

Turning to `CC[C@H](C)[C@H](NC(=O)[C@H](CCCNC(=N)N)NC(=O)[C@@H](NC(=O)[C@H](CC(C)C)NC(=O)[C@H](CC(N)=O)NC(=O)[C@H](Cc1c[nH]c2ccccc12)NC(=O)CCN1CCOCC1)C(C)C)C(=O)NCC(=O)N[C@@H](CC(C)C)C(=O)N[C@@H](CC(C)C)C(=O)N[C@@H](CCCNC(=N)N)C(N)=O` [Compound 137] (X32-WNLVRIGLLR-NH2), the values for the IC50 on PCSK9Δhelix and on PCSK9 were 6.7 µM and at least 50 µM, respectively.

Turning to `CC[C@H](C)[C@H](NC(=O)[C@H](CCCNC(=N)N)NC(=O)[C@@H](NC(=O)[C@H](CC(C)C)NC(=O)[C@H](CC(N)=O)NC(=O)[C@H](Cc1c[nH]c2ccccc12)NC(=O)CCc1cccnc1)C(C)C)C(=O)NCC(=O)N[C@@H](CC(C)C)C(=O)N[C@@H](CC(C)C)C(=O)N[C@@H](CCCNC(=N)N)C(N)=O` [Compound 138] ({Propanoyl(3-(3-pyridyl))}-WNLVRIGLLR-NH2), the figures for the IC50 on PCSK9Δhelix and at PCSK9 were 4.9 µM and 48 µM, respectively.
